{
  "source": "patent US20230270714A1",
  "about": "“SALVINORIN COMPOSITIONS” (priority 2021, published 2023)",
  "assay": "Pharmacokinetics of subcutaneous Salvinorin A in rats, Day 1 and Day 8 (in 1-methyl-2-pyrrolidine, polyethylene glycol 400 1:9 v/v)",
  "type": "in vivo, Sprague-Dawley rats",
  "conditions": "for time to peak plasma concentration (Tmax): summary of two separate studies",
  "experimental": "In another experiment Salvinorin A was formulated at three different dose concentrations (1 mg/mL, 5 mg/mL, and 10 mg/mL Salvinorin A in 1-methyl-2-pyrrolidine, polyethylene glycol 400 at a 1:9 v/v ratio) and administered via injection (subcutaneous) to three groups of Sprague-Dawley rats (each group including female and male rats). The formulation containing 10 mg/mL Salvinorin A was administered as two injections at separate dosage sites (total dose of 100 mg/kg). The same groups of rats were administered a second dose of the injectable composition 7 days after the first dosing.",
  "key": {"[1]": {"conditions": "Day 1, Group 12, 100 mg/kg subcutaneous (two injections), Mean of M and F"}, "[2]": {"conditions": "Day 1, Group 12, 100 mg/kg subcutaneous (two injections), Sex F"}, "[3]": {"conditions": "Day 1, Group 12, 100 mg/kg subcutaneous (two injections), Sex M"}, "[4]": {"conditions": "Day 8 (second dose), Group 10, 5 mg/kg subcutaneous, Mean of M and F"}, "[5]": {"conditions": "Day 8 (second dose), Group 10, 5 mg/kg subcutaneous, Sex F"}, "[6]": {"conditions": "Day 8 (second dose), Group 10, 5 mg/kg subcutaneous, Sex M"}, "[7]": {"conditions": "Day 8 (second dose), Group 11, 25 mg/kg subcutaneous, Mean of M and F"}, "[8]": {"conditions": "Day 8 (second dose), Group 11, 25 mg/kg subcutaneous, Sex F"}, "[9]": {"conditions": "Day 8 (second dose), Group 11, 25 mg/kg subcutaneous, Sex M"}, "[10]": {"conditions": "Day 8 (second dose), Group 12, 100 mg/kg subcutaneous (two injections), Mean of M and F"}, "[11]": {"conditions": "Day 8 (second dose), Group 12, 100 mg/kg subcutaneous (two injections), Sex F"}, "[12]": {"conditions": "Day 8 (second dose), Group 12, 100 mg/kg subcutaneous (two injections), Sex M"}},
  "data": [
    {"molecule": "COC(=O)[C@@H]1C[C@H](OC(C)=O)C(=O)[C@H]2[C@@]1(C)CC[C@H]1C(=O)O[C@H](c3ccoc3)C[C@]21C", "note": "[Salvinorin A]", "values": [
      {"measurement": "AUC0-00", "setting": "[1]", "value": 1580, "unit": "ng·h/mL"},
      {"measurement": "AUClast", "setting": "[1]", "value": 1540, "unit": "ng·h/mL"},
      {"measurement": "Cmax", "setting": "[1]", "value": 370, "unit": "ng/mL"},
      {"measurement": "Tmax", "setting": "[1]", "value": 0.075, "unit": "h"},
      {"measurement": "T½", "setting": "[1]", "value": 4.79, "unit": "h"},
      {"measurement": "AUC0-00", "setting": "[2]", "value": 1920, "unit": "ng·h/mL"},
      {"measurement": "AUClast", "setting": "[2]", "value": 1870, "unit": "ng·h/mL"},
      {"measurement": "Cmax", "setting": "[2]", "value": 419, "unit": "ng/mL"},
      {"measurement": "Tlast", "setting": "[2]", "value": 24, "unit": "h"},
      {"measurement": "Tmax", "setting": "[2]", "value": 1, "unit": "h"},
      {"measurement": "T½", "setting": "[2]", "value": 4.80, "unit": "h"},
      {"measurement": "AUC0-00", "setting": "[3]", "value": 1240, "unit": "ng·h/mL"},
      {"measurement": "AUClast", "setting": "[3]", "value": 1210, "unit": "ng·h/mL"},
      {"measurement": "Cmax", "setting": "[3]", "value": 321, "unit": "ng/mL"},
      {"measurement": "Tlast", "setting": "[3]", "value": 24, "unit": "h"},
      {"measurement": "Tmax", "setting": "[3]", "value": 0.5, "unit": "h"},
      {"measurement": "T½", "setting": "[3]", "value": 4.78, "unit": "h"},
      {"measurement": "AUClast", "setting": "[4]", "value": 200, "unit": "ng·h/mL"},
      {"measurement": "Cmax", "setting": "[4]", "value": 74.5, "unit": "ng/mL"},
      {"measurement": "Tmax", "setting": "[4]", "value": 2, "unit": "h"},
      {"measurement": "AUClast", "setting": "[5]", "value": 211, "unit": "ng·h/mL"},
      {"measurement": "Cmax", "setting": "[5]", "value": 78.3, "unit": "ng/mL"},
      {"measurement": "Tlast", "setting": "[5]", "value": 4, "unit": "h"},
      {"measurement": "Tmax", "setting": "[5]", "value": 2, "unit": "h"},
      {"measurement": "AUClast", "setting": "[6]", "value": 188, "unit": "ng·h/mL"},
      {"measurement": "Cmax", "setting": "[6]", "value": 70.6, "unit": "ng/mL"},
      {"measurement": "Tlast", "setting": "[6]", "value": 4, "unit": "h"},
      {"measurement": "Tmax", "setting": "[6]", "value": 2, "unit": "h"},
      {"measurement": "(h)", "setting": "[7]", "value": 4.54, "unit": "h"},
      {"measurement": "AUC0-00", "setting": "[7]", "value": 735, "unit": "ng·h/mL"},
      {"measurement": "AUClast", "setting": "[7]", "value": 723, "unit": "ng·h/mL"},
      {"measurement": "Cmax", "setting": "[7]", "value": 174, "unit": "ng/mL"},
      {"measurement": "Tmax", "setting": "[7]", "value": 0.75, "unit": "h"},
      {"measurement": "(h)", "setting": "[8]", "value": 4.16, "unit": "h"},
      {"measurement": "AUC0-00", "setting": "[8]", "value": 958, "unit": "ng·h/mL"},
      {"measurement": "AUClast", "setting": "[8]", "value": 946, "unit": "ng·h/mL"},
      {"measurement": "Cmax", "setting": "[8]", "value": 162, "unit": "ng/mL"},
      {"measurement": "Tlast", "setting": "[8]", "value": 24, "unit": "h"},
      {"measurement": "Tmax", "setting": "[8]", "value": 0.5, "unit": "h"},
      {"measurement": "(h)", "setting": "[9]", "value": 4.92, "unit": "h"},
      {"measurement": "AUC0-00", "setting": "[9]", "value": 512, "unit": "ng·h/mL"},
      {"measurement": "AUClast", "setting": "[9]", "value": 500, "unit": "ng·h/mL"},
      {"measurement": "Cmax", "setting": "[9]", "value": 185, "unit": "ng/mL"},
      {"measurement": "Tlast", "setting": "[9]", "value": 24, "unit": "h"},
      {"measurement": "Tmax", "setting": "[9]", "value": 1, "unit": "h"},
      {"measurement": "(h)", "setting": "[10]", "value": 5.00, "unit": "h"},
      {"measurement": "AUC0-00", "setting": "[10]", "value": 1420, "unit": "ng·h/mL"},
      {"measurement": "AUClast", "setting": "[10]", "value": 1380, "unit": "ng·h/mL"},
      {"measurement": "Cmax", "setting": "[10]", "value": 341, "unit": "ng/mL"},
      {"measurement": "Tmax", "setting": "[10]", "value": 0.05, "unit": "h"},
      {"measurement": "(h)", "setting": "[11]", "value": 4.80, "unit": "h"},
      {"measurement": "AUC0-00", "setting": "[11]", "value": 1520, "unit": "ng·h/mL"},
      {"measurement": "AUClast", "setting": "[11]", "value": 1470, "unit": "ng·h/mL"},
      {"measurement": "Cmax", "setting": "[11]", "value": 315, "unit": "ng/mL"},
      {"measurement": "Tlast", "setting": "[11]", "value": 24, "unit": "h"},
      {"measurement": "Tmax", "setting": "[11]", "value": 0.5, "unit": "h"},
      {"measurement": "(h)", "setting": "[12]", "value": 5.20, "unit": "h"},
      {"measurement": "AUC0-00", "setting": "[12]", "value": 1320, "unit": "ng·h/mL"},
      {"measurement": "AUClast", "setting": "[12]", "value": 1280, "unit": "ng·h/mL"},
      {"measurement": "Cmax", "setting": "[12]", "value": 368, "unit": "ng/mL"},
      {"measurement": "Tlast", "setting": "[12]", "value": 24, "unit": "h"},
      {"measurement": "Tmax", "setting": "[12]", "value": 0.5, "unit": "h"},
      {"measurement": "time to peak plasma concentration (Tmax)", "setting": "subcutaneous dosing in the rat at 5 mg/kg", "value": "2 to 4", "unit": "h"},
      {"measurement": "time to peak plasma concentration (Tmax)", "setting": "subcutaneous dosing in the rat at 25 and 100 mg/kg", "value": 0.5, "unit": "h"}
    ]}
  ]
}
